From patent US9630947B2, “Therapeutic compounds and related methods of use” (OTSUKA PHARMACEUTICAL CO., LTD., priority 2009, dated 2017)

These compounds were tested against T1, purified STEP46 enzyme (Homo sapiens, UniProt P54829) (assay: STEP46 biochemical assay (DiFMUP fluorescence phosphatase assay)). Conditions: DiFMUP 10 μM, read-out: STEP IC50.
T1 sequence (P54829 1-565): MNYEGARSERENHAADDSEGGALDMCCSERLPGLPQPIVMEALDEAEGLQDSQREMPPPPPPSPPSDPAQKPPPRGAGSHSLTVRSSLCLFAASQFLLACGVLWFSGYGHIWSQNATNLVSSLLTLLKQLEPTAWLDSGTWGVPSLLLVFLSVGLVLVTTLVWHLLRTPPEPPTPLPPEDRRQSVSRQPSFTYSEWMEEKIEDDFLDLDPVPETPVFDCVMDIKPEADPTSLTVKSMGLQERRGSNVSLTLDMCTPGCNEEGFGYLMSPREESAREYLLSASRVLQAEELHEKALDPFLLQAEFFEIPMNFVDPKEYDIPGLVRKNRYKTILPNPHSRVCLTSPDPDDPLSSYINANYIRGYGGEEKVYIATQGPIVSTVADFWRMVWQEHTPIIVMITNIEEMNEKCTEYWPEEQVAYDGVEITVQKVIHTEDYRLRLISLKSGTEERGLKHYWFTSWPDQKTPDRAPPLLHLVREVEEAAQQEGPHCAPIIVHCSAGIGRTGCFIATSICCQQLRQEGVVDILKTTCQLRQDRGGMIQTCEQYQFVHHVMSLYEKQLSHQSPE
Outline: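 Compounds preincubated 30 min at room temperature with purified STEP46 (1 ng/well) in 50 mM Hepes, 1 mM DTT, 0.02% Brij35, then 10 μM DiFMUP (final) added for 90 min at 27 °C; 2% DMSO, fluorescence at 360/460 nm. IC50 from four-parameter fit of % inhibition; activators reported as negative % inhibition at 25, 50 and 100 uM.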

Structure (SMILES)	IC50 [µM]
COc1ccc2nc(-c3cccnc3)nc(Nc3nc(-c4ccc(Cl)cc4)cs3)c2c1 [Compound 400]	1 to 10
COc1ccc(-c2csc(Nc3nc(-c4cccnc4)nc4ccc(OC)cc34)n2)cc1 [Compound 435]	< 1
CCc1sc(Nc2nc(-c3cccnc3)nc3ccc(OC)cc23)nc1-c1ccccc1 [Compound 463]	1 to 10
COc1ccccc1-c1ccc2nc(-c3cccnc3)nc(Nc3ccc(F)c(Cl)c3)c2c1 [Compound 637]	1 to 10
COc1ccc2nc(-c3cccnc3)nc(Nc3ccc(Br)cc3)c2c1 [Compound 421]	> 10
Fc1ccc(Nc2nc(-c3cccnc3)nc3ccc(-c4ccc5c(c4)OCO5)cc23)cc1Cl [Compound 662]	< 1
CCOC(=O)c1csc(Nc2nc(-c3cccnc3)nc3ccc(OC)cc23)n1 [Compound 474]	1 to 10
COc1ccc2nc(-c3cccnc3)nc(Oc3ccc(Cl)c(Cl)c3)c2c1 [Compound 344]	1 to 10
COc1ccc2nc(-c3cccnc3)nc(Nc3ccc4ccn(C)c4c3)c2c1 [Compound 303]	1 to 10
FC1(F)Oc2ccc(Nc3nc(-c4cccnc4)nc4ccc(-c5cccnc5)cc34)cc2O1 [Compound 312]	< 1
COc1cccc(-c2csc(Nc3nc(-c4cccnc4)nc4ccc(OC)cc34)n2)c1 [Compound 434]	1 to 10
COc1ccc2nc(-c3cccnc3)nc(Nc3nc(-c4ccc(F)c(F)c4)cs3)c2c1 [Compound 445]	< 1
COc1ccc2nc(-c3cccnc3)nc(Nc3nc(-c4ccccc4Cl)cs3)c2c1 [Compound 431]	< 1
COc1ccc2nc(-c3cccnc3)nc(Nc3cccc4c3OC(F)(F)C(F)(F)O4)c2c1 [Compound 342]	1 to 10

Other lines, results leading:

IC50 [µM]	Structure (SMILES)
1 to 10	CNc1nc(-c2cccnc2)nc2c(C)c(-c3ccccc3F)ccc12 [Compound 1446]
< 1	Fc1ccc(Nc2nc(-c3cccnc3)nc3cc(-c4ccccc4)ccc23)cc1Cl [Compound 692]
1 to 10	COc1ccc2c(Nc3ccc(F)c(Cl)c3)nc(-c3cnccn3)nc2c1 [Compound 1148]
1 to 10	CNc1nc(-c2cccnc2)nc2cc(-c3ccc(Cl)cc3)ccc12 [Compound 1354]
1 to 10	CNc1nc(-c2cccnc2)nc2cc(-c3cccc(C(C)=O)c3)ccc12 [Compound 1350]
< 1	Cc1cccc(-c2ccc3c(Nc4ccc(F)c(Cl)c4)nc(-c4cccnc4)nc3c2)c1 [Compound 696]
1 to 10	Fc1ccc(-c2ccc3c(Nc4cccc(OC(F)(F)F)c4)nc(-c4cccnc4)nc3c2)cc1 [Compound 708]
1 to 10	COc1ccc2nc(-c3cccnc3)nc(Nc3ccccc3C(=O)NC(C)c3ccc(C(F)(F)F)cc3)c2c1 (stereo not drawn) [Compound 889]
1 to 10	CN(C)c1ccc2nc(-c3ccnnc3)nc(Nc3ccccc3C(N)=O)c2c1 [Compound 1151]
1 to 10	COc1cccc(-c2ccc3c(Nc4ccc(F)c(Cl)c4)nc(-c4cccnc4)nc3c2)c1 [Compound 681]
1 to 10	CNc1nc(-c2cccnc2)nc2c(C)c(-c3cc(F)cc(F)c3)ccc12 [Compound 1448]
> 10	CNc1nc(-c2cccnc2)nc2cc(-c3ccc(F)cc3)c(C)cc12 [Compound 1404]
1 to 10	CNc1nc(-c2cccnc2)nc2cc(-c3cccc(F)c3F)ccc12 [Compound 1371]
1 to 10	Clc1ccc2nc(-c3cnccn3)nc(Nc3ccc(Cl)c(Cl)c3)c2c1 [Compound 1160]
1 to 10	CNc1nc(-c2cccnc2)nc2ccc(-c3cc(F)c(F)cc3F)cc12 [Compound 1376]
1 to 10	Fc1ccc(Nc2nc(-c3cccnc3)nc3cc(-c4cccc(F)c4F)ccc23)cc1Cl [Compound 697]
1 to 10	Cc1cccc2c(Nc3ccc(F)c(Cl)c3)nc(-c3cnccn3)nc12 [Compound 1176]
1 to 10	Cc1cccc(CNc2nc(-c3cccnc3)nc3ccc(-c4ccc(F)cc4F)cc23)n1 [Compound 1437]
1 to 10	CNc1nc(-c2cncnc2)nc2ccc(-c3cccc(F)c3F)cc12 [Compound 1239]
